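Method: 48-hour compound exposure of cells in 96-well plates, five concentrations, linear interpolation of endpoints. TGI denotes the concentration required for complete inhibition of growth.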
Tests used:
Assay in all cases: NCI anticancer screen, dose series, 48 h
NCI-H226 lung = tested on: NCI-H226 lung
DMS 114 small cell lung = tested on: DMS 114 small cell lung
HOP-18 NSCLC = tested on: HOP-18 NSCLC
SNB-75 CNS = tested on: SNB-75 CNS
NCI-H522 lung = tested on: NCI-H522 lung
SF-268 CNS = tested on: SF-268 CNS
SW-620 colon = tested on: SW-620 colon
COLO 205 colon = tested on: COLO 205 colon
HCC-2998 colon = tested on: HCC-2998 colon
IGROV1 ovarian = tested on: IGROV1 ovarian
DLD-1 colon = tested on: DLD-1 colon
SF-295 CNS = tested on: SF-295 CNS
CCRF-CEM leukemia = tested on: CCRF-CEM leukemia
SR leukemia = tested on: SR leukemia
HT29 colon = tested on: HT29 colon
MOLT-4 leukemia = tested on: MOLT-4 leukemia
A498 renal = tested on: A498 renal
M19-MEL melanoma = tested on: M19-MEL melanoma
UACC-257 melanoma = tested on: UACC-257 melanoma
MALME-3M melanoma = tested on: MALME-3M melanoma
U251 CNS = tested on: U251 CNS
RPMI-8226 leukemia = tested on: RPMI-8226 leukemia
DMS 273 small cell lung = tested on: DMS 273 small cell lung
NCI-H460 lung = tested on: NCI-H460 lung
M14 melanoma = tested on: M14 melanoma
K-562 leukemia = tested on: K-562 leukemia
OVCAR-8 ovarian = tested on: OVCAR-8 ovarian
ACHN renal = tested on: ACHN renal
A549 NSCLC = tested on: A549 NSCLC
UO-31 renal = tested on: UO-31 renal
HL-60(TB) leukemia = tested on: HL-60(TB) leukemia
UACC-62 melanoma = tested on: UACC-62 melanoma
CAKI-1 renal = tested on: CAKI-1 renal
SNB-19 CNS = tested on: SNB-19 CNS
SN12C renal = tested on: SN12C renal
EKVX NSCLC = tested on: EKVX NSCLC
LOX IMVI melanoma = tested on: LOX IMVI melanoma
SF-539 CNS = tested on: SF-539 CNS
786-0 renal = tested on: 786-0 renal
HOP-62 NSCLC = tested on: HOP-62 NSCLC
SK-MEL-5 melanoma = tested on: SK-MEL-5 melanoma
LXFL 529 NSCLC = tested on: LXFL 529 NSCLC
SK-OV-3 ovarian = tested on: SK-OV-3 ovarian
SNB-78 CNS = tested on: SNB-78 CNS
OVCAR-5 ovarian = tested on: OVCAR-5 ovarian
HCT-116 colon = tested on: HCT-116 colon
TK-10 renal = tested on: TK-10 renal
KM12 colon = tested on: KM12 colon
XF 498 CNS = tested on: XF 498 CNS
NCI-H23 lung = tested on: NCI-H23 lung
SK-MEL-28 melanoma = tested on: SK-MEL-28 melanoma
KM20L2 colon = tested on: KM20L2 colon
HCT-15 colon = tested on: HCT-15 colon
OVCAR-4 ovarian = tested on: OVCAR-4 ovarian
OVCAR-3 ovarian = tested on: OVCAR-3 ovarian
HOP-92 NSCLC = tested on: HOP-92 NSCLC
SK-MEL-2 melanoma = tested on: SK-MEL-2 melanoma

`CC(C)NCCCC(C)Nc1ccnc2ccc3nn(C)nc3c12` (stereo unspecified) gave a TGI (NCI-H226 lung) of over 100 µM, a TGI (DMS 114 small cell lung) of over 100 µM and a TGI (HOP-18 NSCLC) of over 100 µM. It also gave a TGI (SNB-75 CNS) of over 100 µM, a TGI (NCI-H522 lung) of over 100 µM and a TGI (SF-268 CNS) of over 100 µM. The TGI (SW-620 colon) was over 100 µM, the TGI (COLO 205 colon) was over 100 µM and the TGI (HCC-2998 colon) was over 100 µM. For the same compound, the TGI (IGROV1 ovarian) was over 100 µM, the TGI (DLD-1 colon) was over 100 µM and the TGI (SF-295 CNS) was over 100 µM. The TGI (CCRF-CEM leukemia) was over 100 µM, the TGI (SR leukemia) was over 100 µM and the TGI (HT29 colon) was over 100 µM. The TGI (MOLT-4 leukemia) was over 100 µM, the TGI (A498 renal) was over 100 µM and the TGI (M19-MEL melanoma) was over 100 µM. For the same compound, the TGI (UACC-257 melanoma) was over 100 µM, the TGI (MALME-3M melanoma) was over 100 µM and the TGI (U251 CNS) was over 100 µM. It also gave a TGI (RPMI-8226 leukemia) of over 100 µM, a TGI (DMS 273 small cell lung) of over 100 µM and a TGI (NCI-H460 lung) of over 100 µM. It also gave a TGI (M14 melanoma) of over 100 µM, a TGI (K-562 leukemia) of over 100 µM and a TGI (OVCAR-8 ovarian) of over 100 µM. It also gave a TGI (ACHN renal) of over 100 µM, a TGI (A549 NSCLC) of over 100 µM and a TGI (UO-31 renal) of over 100 µM. It also gave a TGI (HL-60(TB) leukemia) of over 100 µM, a TGI (UACC-62 melanoma) of over 100 µM and a TGI (CAKI-1 renal) of over 100 µM. The TGI (SNB-19 CNS) was over 100 µM, the TGI (SN12C renal) was over 100 µM and the TGI (EKVX NSCLC) was over 100 µM. The TGI (LOX IMVI melanoma) was over 100 µM, the TGI (SF-539 CNS) was over 100 µM and the TGI (786-0 renal) was over 100 µM. It also gave a TGI (HOP-62 NSCLC) of over 100 µM, a TGI (SK-MEL-5 melanoma) of over 100 µM and a TGI (LXFL 529 NSCLC) of over 100 µM. The TGI (SK-OV-3 ovarian) was over 100 µM, the TGI (SNB-78 CNS) was over 100 µM and the TGI (OVCAR-5 ovarian) was over 100 µM. It also gave a TGI (HCT-116 colon) of over 100 µM, a TGI (TK-10 renal) of over 100 µM and a TGI (KM12 colon) of over 100 µM. The TGI (XF 498 CNS) was over 100 µM and the TGI (NCI-H23 lung) was over 100 µM.
Work on `C=CCSc1ncnc2c1ncn2C1OC(CO)C(O)C1O` (stereo unspecified) yielded a TGI (NCI-H226 lung) of over 100 µM, a TGI (DMS 114 small cell lung) of 70.4 µM and a TGI (HOP-18 NSCLC) of over 100 µM. The TGI (SK-MEL-28 melanoma) was over 100 µM, the TGI (KM20L2 colon) was over 100 µM and the TGI (SNB-75 CNS) was over 100 µM. For the same compound, the TGI (NCI-H522 lung) was over 100 µM, the TGI (SF-268 CNS) was over 100 µM and the TGI (SW-620 colon) was over 100 µM. It also gave a TGI (COLO 205 colon) of over 100 µM, a TGI (HCC-2998 colon) of over 100 µM and a TGI (IGROV1 ovarian) of over 100 µM. For the same compound, the TGI (DLD-1 colon) was over 100 µM, the TGI (SF-295 CNS) was over 100 µM and the TGI (CCRF-CEM leukemia) was over 100 µM. For the same compound, the TGI (SR leukemia) was over 100 µM, the TGI (HT29 colon) was over 100 µM and the TGI (MOLT-4 leukemia) was over 100 µM. For the same compound, the TGI (A498 renal) was over 100 µM, the TGI (M19-MEL melanoma) was over 100 µM and the TGI (UACC-257 melanoma) was over 100 µM. It also gave a TGI (HCT-15 colon) of over 100 µM, a TGI (MALME-3M melanoma) of over 100 µM and a TGI (U251 CNS) of over 100 µM. The TGI (RPMI-8226 leukemia) was over 100 µM, the TGI (DMS 273 small cell lung) was over 100 µM and the TGI (OVCAR-4 ovarian) was over 100 µM. For the same compound, the TGI (OVCAR-3 ovarian) was over 100 µM, the TGI (NCI-H460 lung) was over 100 µM and the TGI (M14 melanoma) was over 100 µM. The TGI (K-562 leukemia) was over 100 µM, the TGI (OVCAR-8 ovarian) was 18.5 µM and the TGI (ACHN renal) was over 100 µM. It also gave a TGI (A549 NSCLC) of over 100 µM, a TGI (UO-31 renal) of over 100 µM and a TGI (HL-60(TB) leukemia) of over 100 µM. It also gave a TGI (UACC-62 melanoma) of over 100 µM, a TGI (CAKI-1 renal) of over 100 µM and a TGI (HOP-92 NSCLC) of over 100 µM. For the same compound, the TGI (SNB-19 CNS) was over 100 µM, the TGI (SN12C renal) was over 100 µM and the TGI (EKVX NSCLC) was over 100 µM. The TGI (SK-MEL-2 melanoma) was over 100 µM, the TGI (LOX IMVI melanoma) was over 100 µM and the TGI (SF-539 CNS) was over 100 µM. For the same compound, the TGI (786-0 renal) was over 100 µM, the TGI (HOP-62 NSCLC) was over 100 µM and the TGI (SK-MEL-5 melanoma) was over 100 µM. For the same compound, the TGI (SK-OV-3 ovarian) was over 100 µM, the TGI (SNB-78 CNS) was over 100 µM and the TGI (OVCAR-5 ovarian) was over 100 µM. For the same compound, the TGI (HCT-116 colon) was over 100 µM, the TGI (TK-10 renal) was over 100 µM and the TGI (KM12 colon) was over 100 µM. The TGI (XF 498 CNS) was over 100 µM and the TGI (NCI-H23 lung) was over 100 µM.

Source: PubChem BioAssay (NCI)
